From article PMC8700061, “Fragment-Sized and Bidentate (Immuno)Proteasome Inhibitors Derived from Cysteine and Threonine Targeting Warheads” (Cells, 2021)
Marks after values point to notes of the source that are not given here.

Experiments:
β5i subunit of human iCP [1] = target: T1, β5i subunit of human iCP (Homo sapiens, UniProt P20618+P28062); test: Inhibition of β5i activity (RA at 10 µM, IC50, IC50 shift), Suc-LLVY-AMC; format: biochemical; details: for Group efficiency (GE): ΔpIC50/ΔNheavy with compound 1 as reference; for RA (%) at 10 µM, β5i: 10 µM compound, 30 min pre-incubation, SDS activator
T1 construct: purchased Boston Biochem, Inc., Cambridge, MA, USA
Experimental: Residual activity measurements were performed at 10 μM final concentrations in the assay buffer (0.01% SDS, 50 mM Tris-HCl, 0.5 mM EDTA, pH 7.4). Stock solutions of the compounds were prepared in DMSO. To 50 μL of each compound in buffer, 25 μL of 0.8 nM human iCP or human cCP (both from Boston Biochem, Inc., Cambridge, MA, USA) were added. After incubation at 37 °C for 30 min, the reaction was started by adding of 25 μL of 100 μM relevant fluorogenic substrate: acetyl-Nle-Pro-Nle-Asp-AMC (Ac-nLPnLD-AMC, (Bachem, Bubendorf, Switzerland)) for β1, acetyl-Pro-Ala-Leu-7-amino-4-methylcoumarin (Ac-PAL-AMC, (Boston Biochem, Inc., Cambridge, MA, USA)) for β1i, t-butyloxycarbonyl-Leu-Arg-Arg-7-amino-4-methylcoumarin (Boc-LRR-AMC, (Bachem, Bubendorf, Switzerland)) for β2 and β2i, succinyl-Leu-Leu-Val-Tyr-7-amino-4-methylcoumarin (Suc-LLVY-AMC) (Bachem, Bubendorf, Switzerland) for β5 and β5i. Reaction progress was recorded on BioTek Synergy HT microplate reader by monitoring fluorescence at 460 nm (λex = 360 nm) for 90 min at 37 °C. The initial linear ranges were used to calculate velocity and determine residual activity. In the case of evaluation of β1, βi, β2, and β2i activities, the assay buffer was modified by replacing SDS with the proteasomal activator PA28α (Boston Biochem, Inc., Cambridge, MA, USA).
Final assay mixtures contained 0.2 nM human iCP or 0.2 nM human cCP in assay buffer (0.01% SDS (or PA28α in cases of β1, β1i subunits), 50 mM Tris-HCl, 0.5 mM EDTA, pH 7.4). Inhibitors were dissolved in DMSO and added to the black 96-well plates for at least eight different concentrations (the final concentration of DMSO was not more than 1%). […] Fluorescence was monitored at 460 nm (λex = 360 nm) for 90 min at 37 °C. The progress of the reactions was recorded and the initial linear ranges were used to calculate the velocity. IC50 values were calculated using GraphPadPrism (GraphPad Software, San Diego, CA, USA) and are means from at least three independent determinations.

β5i subunit of human iCP [2] = target: T1, β5i subunit of human iCP; set-up: method as in PMID 33894528; details: limited stability of compounds after 1 h in assay buffer; read-out: IC50 (µM) against the β5i subunit of human iCP; cited from earlier work
[3] = UV-Vis-based stability assay in buffer; format: physicochemical; details: after 1 h, assay buffer pH 7.4, 37 °C, 50 µM
Experimental: The aqueous stability of all compounds was determined spectrophotometrically by following the changes in the absorption spectra of the compounds. The buffer solution (50 mM Tris-HCl, 0.5 mM EDTA, pH 7.4) was pre-incubated at 37 °C. Aliquots of the compounds studied (1 mM in DMSO) were transferred to a 96-well flat-bottom UV-transparent microplate (Corning, CLS3635, Corning Inc, Corning, NY, USA) containing the buffer solution to obtain a 50 μM solution containing 5% DMSO (final volume, 300 μL). The plate was incubated without lid at 37 °C in a plate reader (Synergy H4, BioTek Instruments, Inc., Santa Clara, CA, USA) and the absorbance spectrum (244–400 nm) was acquired in sweep mode after 0, 15, 30, 60, 120, 180, and 240 min using a discontinuous kinetic procedure in Gen5 software (BioTek Instruments, Inc., Santa Clara, CA, USA). The time required to read the entire plate was 3 min. To determine the baseline, the compound solution was replaced with pure DMSO and subtracted from each reading. Compounds with an absorbance maximum of less than 0.20 AU were not evaluated using these assays due to the high experimental error. For other compounds, the relative absorbance difference between the first time point and 60 min at the most responsive wavelength was calculated. If the relative absorbance difference for the compound in the buffer was below 0.1, between 0.1–0.2, and above 0.2, the compound was classified as stable, intermediate, and unstable, respectively.

[4] = HPLC-based stability assay in PBS; format: physicochemical; details: PBS pH 7.4
Experimental: (§1) GSH reactivity assay was performed as described by Petri et al.; 500 μM solution of compound (PBS buffer pH 7.4, 10% MeCN, 250 μL) with 200 μM solution of indoprofen as internal standard were added to 10 mM GSH solution (dissolved in PBS buffer, 250 μL) in a 1:1 ratio. The final concentration was 250 μM compound, 100 μM indoprofen, 5 mM GSH and 5% MeCN (500 μL). The final mixture was analyzed by HPLC after 0, 1, 2, 4, 8, 12, 24, 48, and 72 h. The degradation kinetics were also studied using the method described in [24], except that pure PBS buffer was used instead of GSH solution. In this experiment, the final concentration of the mixture was 250 μM fragment, 100 μM indoprofen and 5% MeCN. The area under the curve (AUC) values were determined by integrating the HPLC spectra and then corrected with the internal standard.

GSH = test: HPLC-based GSH reactivity assay; format: physicochemical; details: 5 mM glutathione (GSH) in PBS buffer; 250 µM compound, 5 mM GSH, PBS pH 7.4; read-out: Reactivity with GSH (HPLC-based assay), t1/2
Experimental: as §1, with “The final concentration was 250 μM compound, 100 μM indoprofen, 5 mM GSH and 5% MeCN (500 μL).” left out, “In this experiment, the final concentration of the mixture was 250 μM fragment, 100 μM indoprofen and 5% MeCN.” left out

[5] = HPLC-based GSH reactivity assay; format: physicochemical; details: 250 µM compound, 5 mM GSH, PBS pH 7.4
Experimental: as §1, with “The final concentration was 250 μM compound, 100 μM indoprofen, 5 mM GSH and 5% MeCN (500 μL).” left out, “In this experiment, the final concentration of the mixture was 250 μM fragment, 100 μM indoprofen and 5% MeCN.” left out

β5 subunit of human cCP = target: T2, β5 subunit of human cCP (Homo sapiens, UniProt P20618+P28074); test: Inhibition of β5 activity (RA, IC50), Suc-LLVY-AMC; format: biochemical
T2 construct: purchased Boston Biochem, Inc., Cambridge, MA, USA

human iCP (β5i) = target: T3, human iCP (β5i) (Homo sapiens, UniProt P20618+P28062); test: Screening of heterocyclic electrophilic compounds at 500 µM (β5i); format: biochemical; details: 30 min incubation
T3 construct: purchased Boston Biochem, Inc., Cambridge, MA, USA
Experimental: Screening of heterocyclic electrophilic compounds was performed at concentration of 500 µM in assay buffer (0.01% SDS, 50 mM Tris-HCl, 0.5 mM EDTA, pH 7.4). To 50 µL of each compound in buffer, 25 µL of 0.8 nM human iCP (Boston Biochem, Inc., Cambridge, MA, USA) was added. After 30 min incubation at 37 °C, the reaction was started by adding of 25 µL of […] Suc-LLVY-AMC (Bachem, Bubendorf, Switzerland), final concentration 25 µM). The reaction progress was recorded on BioTek Synergy HT microplate reader by monitoring fluorescence at 460 nm (λex = 360 nm) for 90 min at 37 °C. The initial linear ranges were used to calculate the velocity and determine the residual activity.

Row | Structure (SMILES) | Group efficiency (GE) (β5i subunit of human iCP [1]) | IC50 (β5i subunit of human iCP [2]) | RA (%) at 10 µM, β5i (β5i subunit of human iCP [1]) | Stability in Buffer (UV-Vis-based assay) [3] | Stability in Buffer (HPLC-based assay) [4] | also measured
1 | N#Cc1nc2ccc(Cl)cc2o1 [Compound 3] | 0.96 | 9.1 ± 4.5 µM |  |  |  | 
2 | COc1cccc2nc(C#N)oc12 [Compound 9] | 0.61 |  | 20 ± 6% ^f | stable ^c,d (relative absorbance difference for the compound in the buffer was below 0.1) | stable ^c,d | RA (%) at 10 µM, β5i (β5i subunit of human iCP [1]; listed as 7-OMe): 20%; half-life at 250 µM (GSH): < 3 min
3 | COc1ccc2oc(C#N)nc2c1 [Compound 7] | 0.01 |  | 84 ± 11% | stable ^c,d (relative absorbance difference for the compound in the buffer was below 0.1) | stable ^c,d | RA (%) at 10 µM, β5i (β5i subunit of human iCP [1]; listed as 5-OMe): 84%; half-life at 250 µM (GSH): < 3 min
4 | Cc1ccc2nc(C#N)oc2c1 [Compound 5] |  |  | 81 ± 4% |  | low absorbance ^c/stable ^d | Reactivity with GSH (HPLC-based assay), t1/2 [5]: < 3 min
5 | N#Cc1nc2cc(Cl)ccc2o1 [Compound 2] | 0.09 | 67 ± 11 µM |  |  |  | 
6 | N#Cc1nc2ccc(N)cc2o1 [Compound 22] |  |  |  | stable ^c,d (relative absorbance difference for the compound in the buffer was below 0.1) | stable ^c,d | Reactivity with GSH (HPLC-based assay), t1/2 [5]: < 3 min
7 | CC(C)C[C@H](NC(=O)[C@H](CCc1ccccc1)NC(=O)CN1CCOCC1)C(=O)N[C@@H](Cc1ccccc1)C(=O)N[C@@H](CC(C)C)C(=O)[C@@]1(C)CO1 [carfilzomib] |  |  |  |  |  | β5 RA at 10 nM (control) (β5 subunit of human cCP): 25 ± 1%
8 | N#Cc1nc2cccc(Cl)c2o1 [Compound 4] | 0.92 | 10 ± 4.6 µM |  |  |  | 
9 | C=Cc1nccs1 [XXI, 2-vinylthiazole] |  |  |  |  |  | RA at 500 µM [%] (β5i) (human iCP (β5i)): 5 ± 3%
10 | N#Cc1nc2ccccc2o1 [Compound 1, benzoxazole-2-carbonitrile] |  | 83 ± 6 µM |  |  |  | 
